Like-named read-outs stand apart in the source and are kept apart here.
Assay type: in vitro ADME
Details: for Nail (summary) / Receptor (summary) / Total nail (summary): 10 mM
Procedure: The donor solution in experiment 2 consisted of: 0.36% (10 mM) amorolfine HCl in an aqueous solution containing 50 mM NaCl and 0.4% Tween 80. The experiment was performed at pH 3.9 without further adjustment.
The donor solution in experiment 3 consisted of: 0.36% (10 mM) amorolfine HCl in an 40:60 (w:w) Tris buffer:ethanol. The Tris buffer contained 50 mM Tris and 50 mM NaCl at pH 7.4. The pH of the buffer:ethanol solution was ˜7.5. After addition of the drug the pH was ˜5.5.
The donor solution in experiments 4 and 5 consisted of: 1% (28 mM) amorolfine HCl in an 40:60 (w:w) Tris buffer:ethanol. The Tris buffer contained 50 mM Tris and 50 mM NaCl at pH 7.4. The pH of the buffer:ethanol solution was ˜7.5. After addition of the drug the pH was ˜4.7.
Receptor solution: pH 7.4 PBS containing 0.25% Tween 80 (same as Expt. 2).
Diffusion cells: 15 mm diameter Franz diffusion cells were used. The “nail assemblage” was placed in […] the donor and receptor chambers.
Nail device: A nail was glued […] two silicone rings with an internal orifice of 5 mm diameter.
The thickness of the nails was measured with a micrometer. Before hydration nail thickness in the periphery was measured in three places. The central part was not measured at this time to avoid any risk of breaking the nail. The nails were soaked overnight in 50 mM NaCl solution. Because of the increased flexibility of the nail after soaking, it was then possible to measure the thickness in the central part, upper part and lateral corner of the nail (Table 1):
Testing for leaks and iontophoretic circuit: Before starting the iontophoretic experiment, the absence of leaks was tested for each cell. The donor and receptor chambers were filled with donor (without drug) and receptor buffer, respectively, and a 0.1 mA current was passed. In the presence of leaks, the resistance of the circuit is low and the voltage needed to drive the current is very small (˜1V).
The voltages observed at the start of current passage decreased rapidly to settle at (˜30V after approximately 20 minutes.
Once the stability of the circuit with the three cells was assured, the donor compartment was filled with the drug solution and the current re-started.
The intensity of current was 0.1 mA, equivalent to 0.51 mA/cm^2 (area exposed=0.196 cm^2).
One sample was taken after 18 hours of iontophoresis for experiment 2 and 20 hours for experiments 3 and 4. The receptor was then refilled and a passive post-iontophoretic period of 4 hours elapsed before a second sample was obtained.
After recovery of the donor solution, the anode chamber was rinsed twice with ethanol to clean residual solution from the surface of the nail. Then, the nail was cut out of the silicone ring, weighed, dissolved in Soluene®, and assayed for radioactivity.
Experiment 5 is a passive control.

**Q.** With `CCC(C)(C)c1ccc(CC(C)CN2C[C@@H](C)O[C@@H](C)C2)cc1` (stereo partly drawn) [Amorolfine, cis-4-[3-[4-(1,1-dimethylpropyl)phenyl]-2-methylpropyl]-2,6-dimethylmorpholine] as the compound, how does the “effect of iontophoresis on drug delivery into and through the nail” value read?
**A.** enhances drug delivery into and trough the nail

**Q.** What about the “flux of amorolfine, comparison of experiments” value of the same compound?
**A.** higher flux

**Q.** And the “Nail (summary)” value (18 h, pH 3.9)?
**A.** 5.1 ± 4.3 nmol/mg

**Q.** And the “Receptor (summary)” value (18 h, pH 3.9)?
**A.** 2.4 ± 0.5 nmol

**Q.** And the “Total nail (summary)” value (18 h, pH 3.9)?
**A.** 38 ± 13 nmol

**Q.** And the “Nail (summary)” value (20 h)?
**A.** 3.2 ± 0.6 nmol/mg

**Q.** And the “Receptor (summary)” value (20 h)?
**A.** 1.7 ± 0.7 nmol

**Q.** And the “Total nail (summary)” value (20 h)?
**A.** 28 ± 3.6 nmol

From patent US20100291012A1, “ADMINISTRATION OF AMOROLFINE BY IONTOPHORESIS FOR TREATING NAIL DISEASES” (GALDERMA S.A., priority 2008, published 2010)
